From paper PMC8647151, “PLK1‐dependent phosphorylation restrains EBNA2 activity and lymphomagenesis in EBV‐infected mice” (EMBO Reports, 2021) come the findings set out here.

pKd: −log10 of the molar value. Several values for one entry are separate records, joined by “and”; a condition that tells them apart may be missing. Identical values can stand only once. Where a SMILES comes first, the peptide text is derived from it. [ ]: non-standard residue; d: D form. pS = N[C@@H](COP(=O)(O)O)C(=O)O

Assay [1] deals with PLK1 polo-box domain (PBD), PLK1 residue 345-603 (UniProt P53350). Put plainly: ITC; ITC200; 100 µM PBD in the cell titrated with 1 mM peptide, 25 injections of 1.5 µl, 25°C, triplicates. On the technique in general: ITC needs no label: the signal is the heat of the interaction.
Assay [2] concerns the target T1, PLK1 PBD (PLK1 residue 345‐603) (Homo sapiens, UniProt P53350).
T1 construct: His6 (N); made in house; host or cells: E. coli Rosetta (DE3)
The experiment in a line: Isothermal titration calorimetry of EBNA2 heptapeptides with PLK1 PBD. Particulars: ITC200, 100 µM PBD in the cell titrated with 1 mM peptide, 25°C, triplicates. The assay is classed as binding. How it is done: PLK1 frequently binds to phosphorylated substrates that are primed by cellular kinases like Cyclin B/CDK1. These substrates share a consensus motif [Pro/Phe]‐[Φ/Pro]‐[Φ]‐[Thr/Gln/His/Met]‐Ser‐[pThr/pSer]‐[Pro/X] (Φ represents hydrophobic and X represents any residue) specific for binding to the Polo‐box binding domain (PBD) of PLK1 (Elia et al, [2003a]). […] Mutants involving the respective residues were tested for PLK1 binding by transfection and co‐precipitation. […] To specify the contribution of EBNA2 residue S379 phosphorylation, a heptapeptide (PNTSSPS) and phospho‐heptapeptide (PNTSpSPS) were tested for PBD (PLK1 residue 345‐603) binding by isothermal titration calorimetry (ITC). […] GST‐EBNA2 342–422 expressed and purified from bacterial extracts did hardly pulldown any PLK1 from cellular extracts. […] Also, as shown by transfection, EBNA2 S379A binding to PLK1 was severely impaired (Fig 2H). We conclude that EBNA2 residue S379 is a PLK1 docking site primed by Cyclin B/CDK1 phosphorylation.
Experiments were performed on a ITC200 instrument in triplicates and analyzed with the Malvern software. 100 µM PBD was provided in the cell and titrated with 1 mM concentration of wild type (PNTSSPS) or phosphopeptide (PNTSpSPS) with 25 times 1.5 µl injections at 25°C.

Assay [3] has as its target GST-EBNA2 446-474 double-mutant S457A/T465V (Epstein-Barr virus (B95-8)) (UniProt P12978). Put plainly: pull-down; GST-EBNA2 446-474 (wt or phosphorylation mutants) on beads as bait; cellular proteins from DG75 cells; Western blot with GST- and p300-specific antibodies, signals quantified and normalized to wt. In general terms: Immunoblotting shows a protein as a band on a membrane.

The subject of a further assay is PLK1. Put plainly: Kinase assay on EBNA2/PLK1 co-precipitates with endogenous PLK1. Particulars: Volasertib 40 nM, [γ-32P] ATP. The assay is classed as biochemical. How it is done: Monoclonal antibodies specific for His6 (2F12), EBNA2 (R3), glutathione S transferase (6G9), HA‐tag (3F10), BSA (3C5), and LMP1 (1G6) were provided by the antibody facility of the Helmholtz Center Munich. Commercial providers were as follows: GAPDH (Mab374; Merck Millipore), Flag (M2; Sigma‐Aldrich), PLK1 (ab17056; Abcam), GFP (7.1 and 13.1; Roche), and a p300‐specific serum (C20; Santa Cruz). For immunoprecipitations and Western blotting, the equivalent of 1 × 10^7 cells was lysed in 500 µl of lysis buffer (1% NP‐40, 10 mM Tris–HCl pH 7.4, 3% glycerol, 150 mM NaCl, 1 mM EDTA) supplemented with cOmplete protease inhibitor and PhoStop phosphatase inhibitor (Roche) incubated for 30 min at 4°C with constant rolling and for 30 min on ice. The lysate was cleared by centrifugation (16,000 g, 15 min). 1 µg of purified antibodies or 100 µl of hybridoma supernatants was coupled to Protein A or G beads and added to the cleared lysates, incubated for 2 h at 4°C, and washed with lysis buffer, and the protein was eluted with Laemmeli buffer. For GST‐pulldown, antibody‐coated beads were replaced by GST fusion protein‐coated beads. 20 µg protein of total cell lysates or 5 × 10^6 cell equivalents of one immunoprecipitation were loaded per lane. Signals on Western blots were detected by enhanced chemiluminescence (GE Healthcare) and exposed to films or Fusion FX (Vilber Lourmat). […]

Assay [4] concerns the target polo-like kinase 1 (PLK1) (UniProt P53350). The experiment in a line: GST pull-down from cell extract. Particulars: reference: wild type, Cyclin B/CDK1 treated; sites S379.

EBNA2 phospho-heptapeptide PNTSpSPS had a stoichiometry N in assay [1] of 1.

As to “PNTSSPS [unmodified heptapeptide of EBNA2 covering residue S379]”, the “PBD binding by ITC” value in assay [2] is recorded as “no interaction was detected”.

On to “histone acetylase and co-activator p300, endogenous, Q09472 1-2414”, for which the fold p300 binding relative to wt in assay [3] was 8 fold and 9 fold.

Turning to `CC[C@@H]1C(=O)N(C)c2cnc(Nc3ccc(C(=O)N[C@H]4CC[C@H](N5CCN(CC6CC6)CC5)CC4)cc3OC)nc2N1C(C)C` [Volasertib], the “phosphorylation of EBNA2 wt and candidate phosphorylation mutants in immunoprecipitates” value with PLK1 (EBNA2 mutants expressed in DG75 B cells, endogenous PLK1 trapped in precipitates) is “prevented phosphorylation of all EBNA2 proteins”. Besides, the “EBNA2 phosphorylation in co-precipitates of EBNA2 and endogenous PLK1” value in the assay with PLK1 (co-precipitates from DG75 Dox HA-EBNA2 cells, 30 min, 37°C) was “prevented”.

Take “EBNA2 (EBV nuclear antigen 2) 342-422 (from UniProt P12978) S379A, Cyclin B/CDK1 treated”: the “binding against the reference” value in assay [4] is recorded as “lost”.

For the compound `C[C@@H](O)[C@H](NC(=O)[C@H](CC(N)=O)NC(=O)[C@@H]1CCCN1)C(=O)N[C@@H](CO)C(=O)N[C@@H](COP(=O)(O)O)C(=O)N1CCC[C@H]1C(=O)N[C@@H](CO)C(=O)O` [PNTSpSPS] (H-PNTS[pS]PS-OH), in assay [2] (25 x 1.5 µl injections, read-out: dissociation constant KD), the pKd is 5.09.

As usually defined, the stoichiometry N is the number of molecules, sites or subunits per partner or assembly. As a reminder, the pKd is the negative decadic logarithm of the Kd, by convention in mol/L.
